Test results from patent US8637676B2, “Dual-acting benzoimidazole antihypertensive agents” (Theravance, Inc., priority 2007, dated 2014).

What was measured:
human AT1 receptor = biological target: T1, human AT1 receptor (Homo sapiens, UniProt P30556); assay: AT1 radioligand binding assay (Assay 1); conditions: displacement of [Eu]AngII, membranes of CHO-K1 cells expressing human AT1 receptor; read-out: pKi at the AT1 receptor (converted)
T1 construct: expressed in transfected cells; membranes
T1 sequence (P30556 1-359): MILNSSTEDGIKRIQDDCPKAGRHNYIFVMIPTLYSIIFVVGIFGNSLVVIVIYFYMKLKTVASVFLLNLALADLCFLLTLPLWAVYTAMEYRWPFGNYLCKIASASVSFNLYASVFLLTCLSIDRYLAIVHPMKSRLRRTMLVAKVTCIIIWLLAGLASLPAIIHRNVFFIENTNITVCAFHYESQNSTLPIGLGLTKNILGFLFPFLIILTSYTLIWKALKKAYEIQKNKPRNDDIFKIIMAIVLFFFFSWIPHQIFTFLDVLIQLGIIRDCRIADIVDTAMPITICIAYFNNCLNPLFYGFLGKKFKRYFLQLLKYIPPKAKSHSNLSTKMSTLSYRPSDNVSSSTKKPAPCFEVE
Experimental: These in vitro assays were used to assess the ability of test compounds to bind to the AT1 and the AT2 receptors.
Membrane Preparation From Cells Expressing Human AT1 or AT2 Receptors
Chinese hamster ovary (CHO-K^1) derived cell lines stably expressing the cloned human AT1 or AT2 receptors, respectively, were grown in HAM's-F12 medium supplemented with 10% fetal bovine serum, 10 μg/ml penicillin/streptomycin, and 500 μg/ml geneticin in a 5% CO2 humidified incubator at 37° C. AT2 receptor expressing cells were grown in the additional presence of 100 nM PD123,319 (AT2 antagonist). When cultures reached 80-95% confluence, the cells were washed thoroughly in PBS and lifted with 5 mM EDTA. Cells were pelleted by centrifugation and snap frozen in MeOH-dry ice and stored at −80° C. until further use.
For membrane preparation, cell pellets were resuspended in lysis buffer (25 mM Tris/HCl pH 7.5 at 4° C., 1 mM EDTA, and one tablet of Complete Protease Inhibitor Cocktail Tablets with 2 mM EDTA per 50 mL buffer (Roche cat.#1697498, Roche Molecular Biochemicals, Indianapolis, Ind.)) and homogenized using a tight-fitting Dounce glass homogenizer (10 strokes) on ice. The homogenate was centrifuged at 1000×g, the supernatant was collected and centrifuged at 20,000×g. […] Protein concentration of the membrane suspension was determined by the method described in Bradford (1976) Anal Biochem. 72:248-54. […]

NEP enzyme = biological target: T2, NEP enzyme (Homo sapiens, UniProt P08473); assay: In vitro NEP enzyme inhibition assay (Assay 2); assay type: biochemical; conditions: fluorogenic peptide substrate; species of NEP (human or rat) not given; read-out: pIC50 for the NEP enzyme (converted)
T2 construct: purchased R&D Systems, Minneapolis, Minn; 1182-ZN
Experimental: The inhibitory activities of compounds at human and rat NEP and human ACE were determined using in vitro assays as described below.
Rat NEP was prepared from the kidneys of adult Sprague Dawley rats. Whole kidneys were washed in cold PBS and brought up in ice-cold lysis buffer (1% Triton X-114, 150 mM NaCl, 50 mM Tris pH 7.5; Bordier (1981) J. Biol. Chem. 256:1604-1607) in a ratio of 5 mL of buffer for every gram of kidney. Samples were homogenized using a polytron hand held tissue grinder on ice. Homogenates were centrifuged at 1000×g in a swinging bucket rotor for 5 minutes at 3° C. The pellet was resuspended in 20 mL of ice cold lysis buffer and incubated on ice for 30 minutes. […] Protein concentrations were quantitated using a BCA detection system with BSA as a standard. […]
The assays were performed in 384-well white opaque plates at room temperature using the respective fluorogenic peptides at a concentration of 10 μM in assay buffer (50 mM Tris/HCl at 25° C., 100 mM NaCl, 0.01% Tween-20, 1 μM Zn, 0.025% BSA). […] The rat NEP enzyme preparation was used at a concentration that yielded quantitative proteolysis of 3 μM of Mca-RRL within 20 minutes at room temperature.
Assays were started by adding 25 μL of enzyme to 12.5 μL of test compound at 12 concentrations (10 μM to 20 pM). […] Plates were read on a fluorometer with excitation and emission wavelengths set to 320 nm and 405 nm, respectively. […]

T2 sequence (P08473 52-750 limits assumed): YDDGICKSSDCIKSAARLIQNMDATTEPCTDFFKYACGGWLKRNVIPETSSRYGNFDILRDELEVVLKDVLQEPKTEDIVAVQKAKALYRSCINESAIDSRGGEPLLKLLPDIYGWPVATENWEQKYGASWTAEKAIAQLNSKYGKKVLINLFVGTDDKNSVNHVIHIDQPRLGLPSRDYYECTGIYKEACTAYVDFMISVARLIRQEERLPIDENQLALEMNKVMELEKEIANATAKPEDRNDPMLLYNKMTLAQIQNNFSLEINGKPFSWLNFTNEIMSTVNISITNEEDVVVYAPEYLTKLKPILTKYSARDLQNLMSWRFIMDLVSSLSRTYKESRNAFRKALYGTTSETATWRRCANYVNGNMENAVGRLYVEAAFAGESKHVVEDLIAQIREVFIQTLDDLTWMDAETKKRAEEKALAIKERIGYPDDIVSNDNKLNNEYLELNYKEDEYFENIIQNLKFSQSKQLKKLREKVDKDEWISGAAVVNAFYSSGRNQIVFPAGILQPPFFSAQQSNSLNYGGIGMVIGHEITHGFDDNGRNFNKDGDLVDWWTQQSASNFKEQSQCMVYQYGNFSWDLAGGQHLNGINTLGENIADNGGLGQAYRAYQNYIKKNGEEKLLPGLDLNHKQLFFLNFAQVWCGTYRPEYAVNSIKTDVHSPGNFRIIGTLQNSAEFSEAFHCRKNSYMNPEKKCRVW

CCCc1nc2c(C)cc(C(=O)N[C@@H](CC(=O)NO)Cc3ccccc3)cc2n1Cc1ccc(-c2ccccc2C(=O)O)cc1 [Example 1, 4′-[6-((R)-1-Benzyl-2-hydroxycarbamoylethylcarbamoyl)-4-methyl-2-propylbenzoimidazol-1-ylmethyl]biphenyl-2-carboxylic Acid]
Ki (human AT1 receptor): < 100 nM | IC50 (NEP enzyme): ≤ 100 nM
